Assay results as given in patent US20250101034A1, “COMPOSITIONS USEFUL FOR MODULATING SPLICING” (SKYHAWK THERAPEUTICS, INC., priority 2021, published 2025).

Tests used:
total ATXN3 protein = test: ATXN3 total protein assay (MSD, SK-N-MC cells); format: cell-based, Human; conditions: 48 hours incubation, read-out: ATXN3 Potency - Protein IC50
Protocol: Human neuroblastoma SK-N-MC cells were seeded at 10,000 cells/well in 384 well plates one day prior to compound treatment. The concentrations of compounds were tested at appropriate doses ranging from 30 μM to 0.6 nM. After incubation for 48 hours, the cells were lysed with 25 μL of lysis buffer containing protease inhibitors, and total ATXN3 protein levels were assessed by Mesoscale Discovery (MSD) assay developed with one pair of anti-ATXN3 antibodies. The capture and detect antibodies were raised in mouse and rabbit respectively. Anti-rabbit MSD-ST antibody was used for secondary antibody.
ATXN3 recombinant protein was used for standards. The readouts were captured with 35 μL of MSD read buffer and multi-array 384-well high binding plates.

[1] = system: ATXN3 transcripts containing exon 4 (E4E5); test: ATXN3 quantitative splicing assay (qPCR, SK-N-MC cells); format: cell-based; conditions: Homo sapiens, 24 h treatment, qPCR E4E5 primers/probe, read-out: ATXN3 Potency - Splicing E4E5 IC50
Protocol: Human neuroblastoma SK-N-MC cells were plated in 384-well plates at 20,000 cells/well. Twenty-four hours after plating, cells were treated with compounds for 24 h at appropriate concentrations ranging from 30 μM to 0.6 nM (0.3% DMSO). Treated cells were lysed in 15 μL of lysis buffer, and cDNA was synthesized using the Fast Advanced Cells-to-Ct kit. Two μL of each cDNA was used in qPCR reactions to confirm the exon 4 skipped transcripts of ATXN3. A second set of primers/probe E4E5 was used to detect the transcripts containing exon 4. The third set of primers/probe E8E9 was used to detect total gene level of ATXN3. The qPCR reactions were prepared in 384-well plates in 10 μL volume, using TaqMan™ Fast Advanced Master Mix with primers and probes shown in the table below. Reactions were run in a Quant Studio 6 qPCR instrument with default settings.
The primers and probes are listed below in Table 4.

Structure (SMILES) | IC50 (total ATXN3 protein) [µM] | IC50 [1] [µM]
Cc1c(C[C@@H](N)CC(F)(F)F)sc2c(NCc3cccs3)cnnc12 [Compound 50, 6-[(2S)-2-amino-4,4,4-trifluorobutyl]-7-methyl-N-[(thiophen-2-yl)methyl]thieno[3,2-c]pyridazin-4-amine] | 0.501 to 5 | 0.501 to 5
Cc1c(C[C@H](C)N)sc2c(NC(=O)c3cccs3)cnnc12 [Compound 51, N-{6-[(2S)-2-aminopropyl]-7-methylthieno[3,2-c]pyridazin-4-yl}thiophene-2-carboxamide] | 10 to 40 | 10 to 40
Cc1c(C[C@@H](N)CC2CC2)sc2c(NCc3ccco3)cnnc12 [Compound 52, 6-[(2S)-2-amino-3-cyclopropylpropyl]-N-[(furan-2-yl)methyl]-7-methylthieno[3,2-c]pyridazin-4-amine] | 0.501 to 5 | 0.501 to 5
N[C@@H](CO)Cc1cc2nncc(NCc3cccs3)c2s1 [Compound 53, (2R)-2-amino-3-(4-{[(thiophen-2-yl)methyl]amino}thieno[3,2-c]pyridazin-6-yl)propan-1-ol] | 0.501 to 5 | 0.501 to 5
Cc1c(C(C)CO)sc2c(NCc3cccs3)cnnc12 (centres unmarked) [Compound 54, 2-{7-methyl-4-[(thiophen-2-ylmethyl)amino]thieno[3,2-c]pyridazin-6-yl}propan-1-ol] | 10 to 40 | 10 to 40
Cc1c(C(F)[C@H](C)N)sc2c(NCc3cccs3)cnnc12 (stereo partly drawn) [Compound 55, 6-[(2S)-2-amino-1-fluoropropyl]-7-methyl-N-[(thiophen-2-yl)methyl]thieno[3,2-c]pyridazin-4-amine] | 0.501 to 5 | 0.501 to 5
Cc1c(C[C@H](C)N)sc2c(NCc3csc(F)c3)cnnc12 [Compound 56, 6-[(2S)-2-aminopropyl]-N-[(5-fluorothiophen-3-yl)methyl]-7-methylthieno[3,2-c]pyridazin-4-amine] | 10 to 40 | 10 to 40
Cc1nnc2c(C)csc2c1NCc1cccs1 [Compound 57, 3,7-dimethyl-N-[(thiophen-2-yl)methyl]thieno[3,2-c]pyridazin-4-amine] | 10 to 40 | 10 to 40
CSC[C@H](N)Cc1sc2c(NCc3cccs3)cnnc2c1C [Compound 58, 6-[(2R)-2-amino-3-(methylsulfanyl)propyl]-7-methyl-N-(thiophen-2-ylmethyl)thieno[3,2-c]pyridazin-4-amine] | 0.501 to 5 | 0.501 to 5
Cc1c(C[C@@H](N)C[S+](C)[O-])sc2c(NCc3cccs3)cnnc12 (stereo partly drawn) [Compound 59, 6-[(2R)-2-amino-3-methanesulfinylpropyl]-7-methyl-N-[(thiophen-2-yl)methyl]thieno[3,2-c]pyridazin-4-amine] | 10 to 40 | 5 to 10
Cc1c(C[C@@H](N)CS(C)(=O)=O)sc2c(NCc3cccs3)cnnc12 [Compound 60, 6-[(2R)-2-amino-3-methanesulfonylpropyl]-7-methyl-N-(thiophen-2-ylmethyl)thieno[3,2-c]pyridazin-4-amine] | 5 to 10 | 5 to 10
Cc1c(C[C@@H](N)CCO)sc2c(NCc3cccs3)cnnc12 [Compound 61, (3S)-3-amino-4-(7-methyl-4-{[(thiophen-2-yl)methyl]amino}thieno[3,2-c]pyridazin-6-yl)butan-1-ol] | 0.501 to 5 | 0.501 to 5
Cc1c(C[C@H](C)N)sc2c(NCc3ccc(Br)s3)cnnc12 [Compound 62, 6-[(2S)-2-aminopropyl]-N-[(5-bromothiophen-2-yl)methyl]-7-methylthieno[3,2-c]pyridazin-4-amine] | 5 to 10 | 5 to 10
Brc1csc2c(NCc3cccs3)cnnc12 [Compound 63, 7-bromo-N-(thiophen-2-ylmethyl)thieno[3,2-c]pyridazin-4-amine] | 10 to 40 | 10 to 40
Cc1c(C[C@@H](N)C2CC2)sc2c(NCc3ccco3)cnnc12 [Compound 64, 6-[(2R)-2-amino-2-cyclopropylethyl]-N-[(furan-2-yl)methyl]-7-methylthieno[3,2-c]pyridazin-4-amine] | 5 to 10 | 5 to 10
Cc1c(C(C)(C)O)sc2c(NCc3cccs3)cnnc12 [Compound 65, 2-{7-methyl-4-[(thiophen-2-ylmethyl)amino]thieno [3,2-c]pyridazin-6-yl}propan-2-ol] | 10 to 40 | 10 to 40
Cc1c(C[C@H](C)N)sc2c(NCc3cccs3)c(Br)nnc12 [Compound 66, 6-[(2S)-2-aminopropyl]-3-bromo-7-methyl-N-[(thiophen-2-yl)methyl]thieno[3,2-c]pyridazin-4-amine] | 10 to 40 | 10 to 40

Structure (SMILES) | IC50 (total ATXN3 protein) [µM] | IC50 [1] [µM]
Clc1csc2c(NCc3cccs3)cnnc12 [Compound 67, 7-chloro-N-[(thiophen-2-yl)methyl]thieno[3,2-c]pyridazin-4-amine] | 10 to 40 | 10 to 40
Cc1c(C[C@@H](N)CC2CC2)sc2c(NCc3cccs3)cnnc12 [Compound 68, 6-[(2S)-2-amino-3-cyclopropylpropyl]-7-methyl-N-[(thiophen-2-yl)methyl]thieno[3,2-c]pyridazin-4-amine] | 0.501 to 5 | 0.501 to 5
Cc1c(C[C@H]2CCCN2)sc2c(NCc3cccs3)cnnc12 [Compound 69, 7-methyl-6-[(2R)-pyrrolidin-2-ylmethyl]-N-(thiophen-2-ylmethyl)thieno[3,2-c]pyridazin-4-amine] | 10 to 40 | 10 to 40
Cc1c(C[C@@H]2CCN2)sc2c(NCc3cccs3)cnnc12 [Compound 71, 6-{[(2S)-azetidin-2-y1]methyl}-7-methyl-N-[(thiophen-2-yl)methyl]thieno[3,2-c]pyridazin-4-amine] | 10 to 40 | 10 to 40
Cc1c(C[C@H]2CCN2)sc2c(NCc3cccs3)cnnc12 [Compound 72, 6-{[(2R)-azetidin-2-yl]methyl}-7-methyl-N-[(thiophen-2-yl)methyl]thieno[3,2-c]pyridazin-4-amine] | 10 to 40 | 10 to 40
Cc1c(CC2CNC2)sc2c(NCc3cccs3)cnnc12 [Compound 73, 6-[(azetidin-3-yl)methyl]-7-methyl-N-[(thiophen-2-yl)methyl]thieno[3,2-c]pyridazin-4-amine] | 10 to 40 | 10 to 40
COc1ccsc1CNc1cnnc2c(C)c(C[C@H](C)N)sc12 [Compound 74, 6-[(2S)-2-aminopropyl]-N-[(3-methoxythiophen-2-yl)methyl]-7-methylthieno[3,2-c]pyridazin-4-amine] | 10 to 40 | 10 to 40
COc1csc(CNc2cnnc3c(C)c(C[C@H](C)N)sc23)c1 [Compound 75, 6-[(2S)-2-aminopropyl]-N-[(4-methoxythiophen-2-yl)methyl]-7-methylthieno[3,2-c]pyridazin-4-amine] | 10 to 40 | 10 to 40
COc1ccc(CNc2cnnc3c(C)c(C[C@H](C)N)sc23)s1 [Compound 76, 6-[(2S)-2-aminopropyl]-N-[(5-methoxythiophen-2-yl)methyl]-7-methylthieno[3,2-c]pyridazin-4-amine] | 10 to 40 | 10 to 40
C[C@H](N)Cc1sc2c(NCc3cccs3)cnnc2c1C1CC1 [Compound 80, 6-[(2S)-2-aminopropyl]-7-cyclopropyl-N-[(thiophen-2-yl)methyl]thieno[3,2-c]pyridazin-4-amine] | 0.501 to 5 | 0.501 to 5
Cc1c(C[C@H](C)N)sc2c(Nc3cccs3)cnnc12 [Compound 82, 6-[(2S)-2-aminopropyl]-7-methyl-N-(thiophen-2-yl)thieno[3,2-c]pyridazin-4-amine] | 10 to 40 | 10 to 40
COc1nnc2c(C)c(C[C@H](C)N)sc2c1NCc1cccs1 [Compound 86, 6-[(2S)-2-aminopropyl]-3-methoxy-7-methyl-N-[(thiophen-2-yl)methyl]thieno[3,2-c]pyridazin-4-amine] | 10 to 40 | 10 to 40
Cc1csc2c(NCc3cccs3)c(Br)nnc12 [Compound 87, 3-bromo-7-methyl-N-[(thiophen-2-yl)methyl]thieno[3,2-c]pyridazin-4-amine] | 10 to 40 | 10 to 40
Cc1csc2c(NC(=O)c3cccs3)cnnc12 [Compound 89, N-{7-methylthieno[3,2-c]pyridazin-4-yl}thiophene-2-carboxamide] | 10 to 40 | 10 to 40
C[C@H](N)Cc1sc2c(NCc3cccs3)cnnc2c1O [Compound 90, 6-[(2S)-2-aminopropyl]-4-[(thiophen-2-ylmethyl)amino]thieno[3,2-c]pyridazin-7-ol] | 10 to 40 | 10 to 40
N[C@@H](CO)Cc1sc2c(NCc3cccs3)cnnc2c1Cl [Compound 91, (2R)-2-amino-3-(7-chloro-4-{[(thiophen-2-yl)methyl]amino}thieno[3,2-c]pyridazin-6-yl)propan-1-ol] | 0.101 to 0.5 | 0.101 to 0.5
Cc1c(CC2(N)COC2)sc2c(NCc3cccs3)cnnc12 [Compound 92, 6-[(3-aminooxetan-3-yl)methyl]-7-methyl-N-[(thiophen-2-yl)methyl]thieno[3,2-c]pyridazin-4-amine] | 10 to 40 | 10 to 40
